In PubChem BioAssay (NCI):
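Where inhibition never reached the appropriate level, the endpoint shown equals the highest concentration tested. Otherwise, values were interpolated linearly from a five-concentration, 48-hour dose response in 96-well plates. Abbreviation: GI50, concentration required for 50% inhibition of growth. TGI: concentration producing complete growth inhibition.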

Key:
Test in all cases: NCI-60 cell line screen, 48 h
OVCAR-5 ovarian = system: OVCAR-5 ovarian
SK-MEL-28 melanoma = system: SK-MEL-28 melanoma
XF 498 CNS = system: XF 498 CNS
SNB-78 CNS = system: SNB-78 CNS
COLO 205 colon = system: COLO 205 colon
LXFL 529 NSCLC = system: LXFL 529 NSCLC
HOP-18 NSCLC = system: HOP-18 NSCLC
M19-MEL melanoma = system: M19-MEL melanoma
SK-MEL-2 melanoma = system: SK-MEL-2 melanoma
DMS 114 small cell lung = system: DMS 114 small cell lung
DMS 273 small cell lung = system: DMS 273 small cell lung
RXF-631 renal = system: RXF-631 renal
DLD-1 colon = system: DLD-1 colon
KM20L2 colon = system: KM20L2 colon
IGROV1 ovarian = system: IGROV1 ovarian

Row | SMILES | TGI (OVCAR-5 ovarian) | TGI (SK-MEL-28 melanoma) | TGI (XF 498 CNS) | TGI (SNB-78 CNS) | TGI (COLO 205 colon) | TGI (LXFL 529 NSCLC) | TGI (HOP-18 NSCLC) | TGI (M19-MEL melanoma) | TGI (SK-MEL-2 melanoma) | TGI (DMS 114 small cell lung) | TGI (DMS 273 small cell lung) | TGI (RXF-631 renal) | TGI (DLD-1 colon) | TGI (KM20L2 colon) | TGI (IGROV1 ovarian) | GI50 (DMS 114 small cell lung)
1 | COc1c(Cl)c2c(c(OC)c1OC)-c1ccc(OC)c(=O)c(Cl)c1C(NC(C)=O)CC2 (configuration not stated) | > 100 µM | > 100 µM | 12.9 µM | > 100 µM | 0.647 µM | > 100 µM | > 100 µM | > 28.4 µM | 7.87 µM | 1.11 µM | > 100 µM | 6.32 µM | > 100 µM |  |  | 
2 | C/C(=N\NS(=O)(=O)c1ccc(C)cc1)C(CN1CCOCC1)C(c1ccccc1)c1c(O)c2ccccc2oc1=O (configuration not stated) | > 100 µM |  | > 100 µM | > 100 µM | > 100 µM | > 100 µM | > 100 µM | > 100 µM | > 100 µM |  |  | > 100 µM | > 100 µM | > 100 µM | > 100 µM | 
3 | Cc1nc2c(n1CCO)C(=O)c1ccccc1C2=O |  | > 100 µM | 92.9 µM | > 100 µM | 41.9 µM | > 100 µM |  | 6.6 µM | 53 µM |  | 70.2 µM |  | > 100 µM | > 100 µM | 84 µM | 
4 | CCN1CCC(O)(c2ccc(C)cc2)C(C(=O)c2ccc(C)cc2)C1 (configuration not stated) | 47.4 µM | 56 µM | 33.1 µM | > 76.8 µM | 48.8 µM | 31.3 µM | 36.9 µM | > 61.2 µM | > 100 µM |  | 34.7 µM |  | 33.4 µM | 17.7 µM | > 58.9 µM | 
5 | COc1cccc(-c2cc(=O)c3cc(OC)c(OC)cc3[nH]2)c1 |  | > 100 µM |  | > 100 µM | > 100 µM | > 100 µM |  | > 100 µM |  | > 100 µM | > 100 µM |  | > 100 µM | > 100 µM | > 100 µM | 54.4 µM
6 | COc1ccc(N2C(=O)C3c4[nH]c5ccc(OC)cc5c4C4CCC(C(C)(C)C)CC4C3C2=O)cc1 (configuration not stated) | > 100 µM | > 100 µM | > 100 µM | 45.3 µM | > 100 µM | 65.2 µM | > 100 µM | > 100 µM | 70.4 µM | > 100 µM | 40.1 µM |  | > 100 µM | > 100 µM | > 100 µM | 
7 | COc1cccc2c1CCc1ccccc1CC2=O | > 100 µM | > 100 µM | > 100 µM |  | > 100 µM | > 100 µM | > 100 µM | > 100 µM | > 100 µM | > 100 µM | > 100 µM |  | > 100 µM | > 100 µM | > 100 µM | 
8 | O=C1CCCCC1CN1CCCC1 (configuration not stated) | > 100 µM | > 100 µM | > 100 µM | > 100 µM | > 100 µM | > 100 µM |  | > 100 µM | > 100 µM | > 100 µM | > 100 µM |  | > 100 µM | > 100 µM | > 100 µM | 
9 | CC(=O)c1cccc(NC(=O)/C(=N\NC(C)(C)C)c2c(O)c3ccccc3oc2=O)c1 |  | > 100 µM | > 100 µM |  | > 100 µM | > 100 µM | > 100 µM | > 100 µM | > 100 µM | > 100 µM | > 100 µM |  | > 100 µM | > 100 µM | > 100 µM | 
10 | CNC(=O)CN(CC(=O)NC)C(=O)NC | > 100 µM | > 100 µM | > 100 µM | > 100 µM | > 100 µM | > 100 µM |  | > 100 µM | > 100 µM |  | > 100 µM |  | > 100 µM | > 100 µM | > 100 µM | 
11 | CN(C)c1ccc(-c2cc(=O)c3cc4c(cc3[nH]2)OCO4)cc1 |  | > 100 µM | > 100 µM |  | > 100 µM | > 100 µM |  | > 100 µM | > 100 µM | > 100 µM | > 100 µM | > 100 µM | > 100 µM | > 100 µM | > 100 µM | 
12 | COC(=O)c1ccc(OCc2ccc3nc(OC)c(OC)nc3c2)cc1 | > 100 µM | > 100 µM | > 100 µM | > 100 µM | > 100 µM |  | > 100 µM | > 100 µM | > 100 µM | > 100 µM | > 100 µM |  | > 100 µM |  |  | 
13 | O=C(O)CN1CCNCCN(CP(=O)(O)O)CC1 | > 100 µM | > 100 µM |  |  | > 100 µM |  |  |  | > 100 µM |  |  |  |  |  | > 100 µM | 
14 | Cc1ccc(CC(=O)Nc2ccc(NC(=O)/C=C/NC(=O)/C=C/c3ccc(-c4ccccc4)cc3)cc2C(=O)c2ccccc2)cc1 | 5.77 µM | 9 µM |  |  | 4.53 µM |  |  |  | 5.79 µM |  |  |  |  |  | 2.16 µM | 
